Several values for one entry are separate records, joined by “and”; a condition that tells them apart may be missing. Equal entries are not always repeated. Blank lines part the entries; values can stand above or below the molecule they belong to.
How the values were obtained:
uterus [1] = assay: Uterine weight in ovariectomized rats, 4-day oral dosing (Table 1); type: in vivo, female Sprague Dawley rats; details: OVX rats; for change in vivo at 0.1 mg/kg / change in vivo at 10 mg/kg / change in vivo at 25 mg/kg / change in vivo at 1 mg/kg: Rattus norvegicus, po, 96 h, daily for 4 days, read-out: Uterine Wt. (% inc. vs. OVX); for change in vivo at 0.1 mg/kg: 0.1 mg/kg oral; for change in vivo at 10 mg/kg: 10 mg/kg oral; for change in vivo at 25 mg/kg: 25 mg/kg oral; for change in vivo at 1 mg/kg: 1 mg/kg oral
Procedure: In the examples illustrating the methods, a post-menopausal model was used in which effects of different treatments upon circulating lipids were determined.
(§1) Seventy-five day old female Sprague Dawley rats (weight range of 200 to 225 g) were obtained from Charles River Laboratories (Portage, Mich.). The animals were either bilaterally ovariectomized (OVX) or exposed to a sham surgical procedure at Charles River Laboratories, and then shipped after one week. Upon arrival, they were housed in metal hanging cages in groups of 3 or 4 per cage and had ad libitum access to food (calcium content approximately 0.5%) and water for one week. Room temperature was maintained at 22.2° ±1.7° C. with a minimum relative humidity of 40%. The photoperiod in the room was 12 hours light and 12 hours dark.
(§2) Dosing Regimen Tissue Collection. After a one week acclimation period (therefore, two weeks post-OVX) daily dosing with test compound was initiated. 17α-ethynyl estradiol or the test compound were given orally, unless otherwise stated, as a suspension in 1% carboxymethylcellulose or dissolved in 20% cyclodextrin. Animals were dosed daily for 4 days. Following the dosing regimen, animals were weighed and anesthetized with a ketamine: Xylazine (2:1, V:V) mixture and a blood sample was collected by cardiac puncture. The animals were then sacrificed by asphyxiation with CO2, the uterus was removed through a midline incision, and a wet uterine weight was determined.
(§3) Data presented in Table 1 below show comparative results among ovariectomized rats, rats treated with 17α-ethynyl estradiol (EE2; an orally available form of estrogen), and rats treated with certain compounds of the present invention. […] This uterine response to estrogen is well recognized in the art.
(§4) The data presented in Table 1 below reflects the response of 5 to 6 rats per treatment.

[2] = tested on: Femur (distal metaphysis); assay: Osteoporosis Test: distal femur metaphysis x-ray image / bone density (Table 2); type: in vivo, rats; details: for Femur (x-ray image) (% protect.): daily for 35 days, 6-month-old rats; for bone density, in words: ovariectomized rats, oral, 35 days
Procedure: Following the General Preparation Procedure, infra, the rats were treated daily for 35 days (6 rats per treatment group) and sacrificed by carbon dioxide asphyxiation on the 36th day. The 35 day time period was sufficient to allow maximal reduction in bone density, measured as described herein. At the time of sacrifice, the uteri were removed, dissected free of extraneous tissue, and the fluid contents were expelled before determination of wet weight in order to confirm estrogen deficiency associated with complete ovariectomy. […] The right femurs were excised and digitilized x-rays generated and analyzed by an image analysis program (NIH image) at the distal metaphysis. The proximal aspect of the tibiae from these animals were also scanned by quantitative computed tomography. In accordance with the above procedures, the compound of Example 9 and ethynyl estradiol (EE2) in 20% hydroxypropyl β-cyclodextrin were orally administered to test animals. Distal femur metaphysis data presented in Tables 2 and 3 below are the results of compound treatments compared to intact and ovariectomized test animals. The rats in the Table 2 tests were 6 months of age rather than 75 days of age (at the beginning of the tests).

uterus [3] = assay: Osteoporosis Test: uterine weight (Table 2); type: in vivo; details: daily for 35 days, 6-month-old rats
Procedure: (§5) Following the General Preparation Procedure, infra, the rats were treated daily for 35 days (6 rats per treatment group) and sacrificed by carbon dioxide asphyxiation on the 36th day. The 35 day time period was sufficient to allow maximal reduction in bone density, measured as described herein. At the time of sacrifice, the uteri were removed, dissected free of extraneous tissue, and the fluid contents were expelled before determination of wet weight in order to confirm estrogen deficiency associated with complete ovariectomy. […] In accordance with the above procedures, the compound of Example 9 and ethynyl estradiol (EE2) in 20% hydroxypropyl β-cyclodextrin were orally administered to test animals. Distal femur metaphysis data presented in Tables 2 and 3 below are the results of compound treatments compared to intact and ovariectomized test animals. The rats in the Table 2 tests were 6 months of age rather than 75 days of age (at the beginning of the tests).

Serum cholesterol [4] = assay: Serum cholesterol in ovariectomized rats, 4-day oral dosing (Table 1); type: in vivo, female Sprague Dawley rats; details: OVX rats; for inhibition in vivo at 0.1 mg/kg / inhibition in vivo at 1 mg/kg / inhibition in vivo at 25 mg/kg / ED50 / inhibition in vivo at 10 mg/kg: Rattus norvegicus, po, 96 h, daily for 4 days; for inhibition in vivo at 0.1 mg/kg: 0.1 mg/kg oral; for inhibition in vivo at 0.1 mg/kg / inhibition in vivo at 1 mg/kg / inhibition in vivo at 25 mg/kg / inhibition in vivo at 10 mg/kg: read-out: Serum Cholesterol (% dec. vs. OVX); for inhibition in vivo at 1 mg/kg: 1 mg/kg oral; for inhibition in vivo at 25 mg/kg: 25 mg/kg oral; for ED50: dose column in mg/kg, read-out: ED50 (effective dose to dec. serum chol. by 50%); for inhibition in vivo at 10 mg/kg: 10 mg/kg oral
Text: as §1, §2
(§6) Cholesterol Analysis. Blood samples were allowed to clot at room temperature for 2 hours, and serum was obtained following centrifugation for 10 minutes at 3000 rpm. Serum cholesterol was determined using a Boehringer Mannheim Diagnostics high performance cholesterol assay. Briefly the cholesterol was oxidized to cholest-4-en-3-one and hydrogen peroxide. The hydrogen peroxide was then reacted with phenol and 4-aminophenazone in the presence of peroxidase to produce a p-quinone imine dye, which was read spectrophotometrically at 500 nm. Cholesterol concentration was then calculated against a standard curve. The entire assay was automated using a Biomek Automated Workstation.
as §3, §4

Serum cholesterol [5] = assay: Osteoporosis Test: serum cholesterol (Table 2); type: in vivo; details: daily for 35 days, 6-month-old rats
Procedure: as §6
Following the General Preparation Procedure, infra, the rats were treated daily for 35 days (6 rats per treatment group) and sacrificed by carbon dioxide asphyxiation on the 36th day. The 35 day time period was sufficient to allow maximal reduction in bone density, measured as described herein. At the time of sacrifice, the uteri were removed, dissected free of extraneous tissue, and the fluid contents were expelled before determination of wet weight in order to confirm estrogen deficiency associated with complete ovariectomy.
In accordance with the above procedures, the compound of Example 9 and ethynyl estradiol (EE2) in 20% hydroxypropyl β-cyclodextrin were orally administered to test animals. Distal femur metaphysis data presented in Tables 2 and 3 below are the results of compound treatments compared to intact and ovariectomized test animals. The rats in the Table 2 tests were 6 months of age rather than 75 days of age (at the beginning of the tests).

[6] = tested on: Uterine Eosinophil Peroxidase (EPO); assay: Uterine Eosinophil Peroxidase (EPO) Assay (Table 1); type: in vivo, female Sprague Dawley rats; parameters: key to Uterine EPO (V. max): Vmax of absorbance increase at 450 nm, monitored over 1 min; details: for Uterine EPO (V. max): OVX rats, daily for 4 days
Text: as §1, §2
Uterine Eosinomhil Peroxidase (EPO) Assay. Uteri were kept at 4° C. until time of enzymatic analysis. The uteri were then homogenized in 50 volumes of 50 mM Tris buffer (pH-8.0) containing 0.005% Triton X-100. Upon addition of 0.01% hydrogen peroxide and 10 mM O-phenylenediamine (final concentrations) in Tris buffer, increase in absorbance was monitored for one minute at 450 nm. The presence of eosinophils in the uterus is an indication of estrogenic activity of a compound. The maximal velocity of a 15 second interval was determined over the initial, linear portion of the reaction curve.
As is expressed in the below data, estrogenicity also was assessed by evaluating the response of eosinophil infiltration into the uterus.
as §4

[7] = tested on: MCF-7 breast adenocarcinoma cells; assay: MCF-7 Proliferation Assay; type: cell-based; details: Homo sapiens, MCF7, tritiated thymidine, 48 hours
Procedure: MCF-7 breast adenocarcinoma cells (ATCC HTB 22) were maintained in MEM (minimal essential medium, phenol red-free, Sigma, St. Louis, Mo.) supplemented with 10% fetal bovine serum (FBS) (V/V), L-glutamine (2 mM), sodium pyruvate (1 mM), HEPES {(N-[2-hydroxyethyl]piperazine-N'-[2-ethanesulfonic acid]10 mM}, non-essential amino acids and bovine insulin (1 ug/mL) (maintenance medium). Ten days prior to assay, MCF-7 cells were switched to maintenance medium supplemented with 10% dextran coated charcoal stripped fetal bovine serum (DCC-FBS) assay medium) in place of 10% FBS to deplete internal stores of steroids. MCF-7 cells were removed from maintenance flasks using cell dissociation medium (Ca++/Mg++free HBSS (phenol red-free) supplemented with 10 mM HEPES and 2 mM EDTA). Cells were washed twice with assay medium and adjusted to 80,000 cells/mL. Approximately 100 μL (8,000 cells) were added to flat-bottom microculture wells (Costar 3596) and incubated at 37° C. in a 5% CO2 humidified incubator for 48 hours to allow for cell adherence and equilibration after transfer. Serial dilutions of drugs or DMSO as a diluent control were prepared in assay medium and 50 μL transferred to triplicate microcultures followed by 50 μL assay medium for a final volume of 200μ. After an additional 48 hours at 37° C. in a 5% CO2 humidified incubator, microcultures were pulsed with tritiated thymidine (1 uCi/well) for 4 hours. Cultures were terminated by freezing at -70° C. for 24 hours followed by thawing and harvesting of microcultures using a Skatron Semiautomatic Cell Harvester. Samples were counted by liquid scintillation using a Wallac BetaPlace β counter. Results in Table 4 below show the IC50 for certain compounds of the present invention.

[8] = Osteoporosis Test: body weight change (Table 2); type: in vivo; details: daily for 35 days, 6-month-old rats
Procedure: as §5

Structure (SMILES): C#CC1(O)CCC2C3CCc4cc(O)ccc4C3CCC21C (stereo not drawn) [EE2, 17α-ethynyl estradiol, reference compound]
uterine weight, in words (uterus [1]; oral, EE2 at 0.1 mg/kg/day): uterine weight was substantially greater than the uterine weight of ovariectomized control animals
Femur (x-ray image) (% protect.) ([2]; 0.1 mg/kg oral): 41.8% and 25.5%
bone density, in words [2]: prevented this loss
Uterine Wt. (% inc. vs. OVX) (uterus [3]; 0.1 mg/kg oral): 128.3% and 226.1%
serum cholesterol, in words (Serum cholesterol [4]; oral, EE2 at 0.1 mg/kg/day): caused a decrease in serum cholesterol
Serum Chol. (% dec. vs. OVX) (Serum cholesterol [5]; 0.1 mg/kg oral): 73.8% and 73.6%
eosinophil infiltration into the uterus, in words ([6]; ovariectomized rats): caused a substantial, expected increase in eosinophil infiltration

Structure (SMILES): Cc1ccc(-c2ccc(O)cc2)c(-c2ccc(OCCN3CCCC3)cc2)n1 [Example 9, 2-[4-[2-(1-Pyrrolidinyl)ethoxy]phenyl]-3-(4-hydroxyphenyl)-6-methylpyridine]
change in vivo at 10 mg/kg (uterus [1]): 26.3%
change in vivo at 25 mg/kg (uterus [1]): 24.3%
Femur (x-ray image) (% protect.) ([2]; 0.01 mg/kg oral): -11.5%
Femur (x-ray image) (% protect.) ([2]; 0.1 mg/kg oral): -16.4%
Femur (x-ray image) (% protect.) ([2]; 25 mg/kg oral): 33.3%
bone density, in words [2]: elevated mean bone density in a general, dose-related manner
Uterine Wt. (% inc. vs. OVX) (uterus [3]; 0.01 mg/kg oral): -3.5%
Uterine Wt. (% inc. vs. OVX) (uterus [3]; 0.1 mg/kg oral): -11%
Uterine Wt. (% inc. vs. OVX) (uterus [3]; 25 mg/kg oral): -6.8%
inhibition in vivo at 10 mg/kg (Serum cholesterol [4]): 49.2%
inhibition in vivo at 25 mg/kg (Serum cholesterol [4]): 58.5%
Serum Chol. (% dec. vs. OVX) (Serum cholesterol [5]; 0.01 mg/kg oral): 44.4%
Serum Chol. (% dec. vs. OVX) (Serum cholesterol [5]; 0.1 mg/kg oral): 33.6%
Serum Chol. (% dec. vs. OVX) (Serum cholesterol [5]; 1 mg/kg oral): 35.4% and 54.2%
Serum Chol. (% dec. vs. OVX) (Serum cholesterol [5]; 10 mg/kg oral): 35.4% and 42.2%
Serum Chol. (% dec. vs. OVX) (Serum cholesterol [5]; 25 mg/kg oral): 19.7%
Body Wt. Change (% dec. vs. OVX) ([8]; 0.01 mg/kg oral): -5%
Body Wt. Change (% dec. vs. OVX) ([8]; 0.1 mg/kg oral): -8.2%
Body Wt. Change (% dec. vs. OVX) ([8]; 25 mg/kg oral): 6.3%

Structure (SMILES): Oc1ccc(-c2ccc(-c3ccc(O)cc3)c(-c3ccc(OCCN4CCCC4)cc3)n2)cc1 [Example 14, 2-[4-[2-(1-Pyrrolidinyl)ethoxy]phenyl]-3,6-bis(4-hydroxyphenyl)pyridine]
change in vivo at 0.1 mg/kg (uterus [1]): 6.3%
change in vivo at 1 mg/kg (uterus [1]): -3.3%
change in vivo at 10 mg/kg (uterus [1]): 8.8%
inhibition in vivo at 0.1 mg/kg (Serum cholesterol [4]): 11.9%
inhibition in vivo at 1 mg/kg (Serum cholesterol [4]): -16.5%
inhibition in vivo at 10 mg/kg (Serum cholesterol [4]): -7.3%
ED50 (Serum cholesterol [4]; oral): > 10 mg/kg
Uterine EPO (V. max) ([6]; 0.1 mg/kg oral): 2.4
Uterine EPO (V. max) ([6]; 1 mg/kg oral): 4.5
Uterine EPO (V. max) ([6]; 10 mg/kg oral): 4.2
IC50 [7]: 9 nM

Further lines, with some results ahead:

IC50 [7]: 470 nM
Structure (SMILES): COc1ccc(-c2ccc(-c3ccc(F)cc3)nc2-c2ccc(OCCN3CCCCC3)cc2)cc1 [Example 6, 2-[4-[2-(1-Piperidinyl)ethoxy]phenyl]-3-(4-methoxyphenyl)-6-(4-fluorophenyl)pyridine]
change in vivo at 0.1 mg/kg (uterus [1]): 9.5%
change in vivo at 10 mg/kg (uterus [1]): 44.2%
change in vivo at 25 mg/kg (uterus [1]): 69.5%
inhibition in vivo at 0.1 mg/kg (Serum cholesterol [4]): 4%
inhibition in vivo at 1 mg/kg (Serum cholesterol [4]): 12.3%
inhibition in vivo at 25 mg/kg (Serum cholesterol [4]): 40.8%
ED50 (Serum cholesterol [4]; oral): 70 mg/kg
Uterine EPO (V. max) ([6]; 0.1 mg/kg oral): 6.6
Uterine EPO (V. max) ([6]; 25 mg/kg oral): 22.6

IC50 [7]: 185 nM
Structure (SMILES): Oc1ccc(-c2ccc(-c3ccc(F)cc3)nc2-c2ccc(OCCN3CCCCC3)cc2)cc1 [Example 12, 2-[4-[2-(1-Piperidinyl)ethoxy]phenyl]-3-(4-hydroxyphenyl)-6-(4-fluorophenyl)pyridine]
change in vivo at 0.1 mg/kg (uterus [1]): 9.8%
change in vivo at 1 mg/kg (uterus [1]): 4.2%
change in vivo at 10 mg/kg (uterus [1]): 76.2%
change in vivo at 25 mg/kg (uterus [1]): 68%
inhibition in vivo at 0.1 mg/kg (Serum cholesterol [4]): 26.2%
inhibition in vivo at 25 mg/kg (Serum cholesterol [4]): 49.9%
Uterine EPO (V. max) ([6]; 0.1 mg/kg oral): 5.9
Uterine EPO (V. max) ([6]; 25 mg/kg oral): 67.9

Reference: patent US5672609A, “Pyridine compounds, intermediates compositions and methods of use” (Eli Lilly and Company, priority 1996, dated 1997)
